Laboratory results taken from the supplement of paper PMC11451515.

Columns and labels:
Conditions in all cases: 48 h
[1] = test system: NOMO1; assay: cell viability relative to DMSO control; higher = less cytotoxic
Outline: (§1)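 Viability is a per-plate percentage relative to DMSO wells, with cell-free wells as background. CellTiter-Glo One luminescence was read after 48 h at 37°C on 1536-well plates (5 μl) of NOMO1 or SEM (500 cells/well) or P12-Ichikawa (1000 cells/well) leukemia cells. The cells had been adapted for at least four passages in each medium and pin-dosed with library compounds in DMSO from 47 μM to 0.79 nM in 11 threefold steps.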

[2] = test system: P12-Ichikawa; assay: as above
Outline: as §1

[3] = test system: SEM cells; assay: as above
Outline: as §1

[4] = test system: NOMO1; assay: AUC of viability dose-response curve (% viability x log10 dose units); higher = less sensitive
Outline: (§2)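 In 1536-well plates, leukemia cells adapted to each medium (500 or 1000 cells/well) were exposed for 48 h at 37°C to library compounds in DMSO across 11 threefold doses, 47 μM down to 0.79 nM. Viability was read by CellTiter-Glo One luminescence and normalised per plate to DMSO and cell-free wells. A four-parameter log-logistic fit over log10 doses was integrated by trapezoidal rule. This yielded the area under the curve, with over-full-viability curves scaled and quality-control failures dropped.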

[5] = test system: P12-Ichikawa; assay: as above
Outline: as §2

[6] = test system: SEM cells; assay: as above
Outline: as §2

CC(C)(S)[C@@H](N)C(=O)O
cell viability [%]
Conditions	[1]	[2]	[3]
HPLM + 10% dialyzed FBS, 0.000781 µM	111	108	75.7
HPLM + 10% dialyzed FBS, 0.00234 µM	118	112	94.7
HPLM + 10% dialyzed FBS, 0.00702 µM	97.1	115	96
HPLM + 10% dialyzed FBS, 0.0211 µM	136	120	109
HPLM + 10% dialyzed FBS, 0.0632 µM	132	106	72.8
HPLM + 10% dialyzed FBS, 0.19 µM	111	120	108
HPLM + 10% dialyzed FBS, 0.569 µM	109	113	90.5
HPLM + 10% dialyzed FBS, 1.71 µM	133	122	110
HPLM + 10% dialyzed FBS, 5.12 µM	114	117	97.3
HPLM + 10% dialyzed FBS, 15.4 µM	128	115	104
HPLM + 10% dialyzed FBS, 46.1 µM	80.6	108	20
RPMI 5 mM glucose + 10% FBS, 0.000781 µM	103	100	75
RPMI 5 mM glucose + 10% FBS, 0.00234 µM	106	109	94.5
RPMI 5 mM glucose + 10% FBS, 0.00702 µM	113	114	100
RPMI 5 mM glucose + 10% FBS, 0.0211 µM	103	121	100
RPMI 5 mM glucose + 10% FBS, 0.0632 µM	118	96.1	64.8
RPMI 5 mM glucose + 10% FBS, 0.19 µM	115	112	110
RPMI 5 mM glucose + 10% FBS, 0.569 µM	103	118	110
RPMI 5 mM glucose + 10% FBS, 1.71 µM	105	121	107
RPMI 5 mM glucose + 10% FBS, 5.12 µM	115	115	113
RPMI 5 mM glucose + 10% FBS, 15.4 µM	111	125	107
RPMI 5 mM glucose + 10% FBS, 46.1 µM	106	99.5	13.3
RPMI 5 mM glucose + 10% dialyzed FBS, 0.000781 µM	97.5	104	91.1
RPMI 5 mM glucose + 10% dialyzed FBS, 0.00234 µM	94.7	110	99.8
RPMI 5 mM glucose + 10% dialyzed FBS, 0.00702 µM	112	103	105
RPMI 5 mM glucose + 10% dialyzed FBS, 0.0211 µM	115	115	99.4
RPMI 5 mM glucose + 10% dialyzed FBS, 0.0632 µM	124	98	84.9
RPMI 5 mM glucose + 10% dialyzed FBS, 0.19 µM	117	109	103
RPMI 5 mM glucose + 10% dialyzed FBS, 0.569 µM	108	107	104
RPMI 5 mM glucose + 10% dialyzed FBS, 1.71 µM	118	112	107
RPMI 5 mM glucose + 10% dialyzed FBS, 5.12 µM	118	114	122
RPMI 5 mM glucose + 10% dialyzed FBS, 15.4 µM	108	111	116
RPMI 5 mM glucose + 10% dialyzed FBS, 46.1 µM	62.1	95.8	16.1

AUC of viability dose-response curve
Conditions	[4]	[5]	[6]
HPLM + 10% dialyzed FBS	469	471	439
RPMI 5 mM glucose + 10% FBS	472	468	431
RPMI 5 mM glucose + 10% dialyzed FBS	465	476	455
